# Values quoted from earlier work, collected in paper PMC4744679 (Drug Testing and Analysis, 2015).
# Experiments:
# [1] = rats, orally administered, 24 and 48 h after injection
# [2] = 0.5–3 h of observation
# [3] = for Primary accumulation: inner ear, brain, kidney and liver examined
# [4] = murine, single intraperitoneal injection
# [5] = mature teratoma
smiles,measurement,setting,value
CC(=O)[O-].CC(=O)[O-].N.NC12CC3CC(CC(C3)C1)C2.[Cl-].[Cl-].[Pt+4] [(OC‐6‐43)‐bis (acetato) (1‐adamantylamine) amminedichloroplatinum (IV)],Main accumulation organs,[1],"liver, kidneys and spleen"
"CC(C)c1cc(C(=O)[O-])c([O-])c(C(C)C)c1.NC1CCCCC1N.[Pt+2] [Saliplatin, cis‐3,5‐diisopropylsalylic cyclohexano‐diaminoplatinum (II)]",Primary accumulation sites,[2],"spleen, liver, and kidneys"
"N.N.O=C([O-])C1(C(=O)[O-])CCC1.[Pt+2] [carboplatin, cis‐diammine(1,1‐cyclobutanedicarboxylato)platinum (II)]",Main deposition,,kidney
same,Distribution into brain and inner ear,[3],much less distributed into brain and inner ear
same,Primary accumulation,[3],kidney and liver
"N.N.[Cl][Pt][Cl] [cisplatin, cis‐dichlorodiammineplatinum (II)]",Main platinum accumulation,[4],"kidneys and, secondly, in liver"
same,Main deposition,,kidney
same,Time after administration at which platinum is detected in the tissue,[5],more than 7 years
same,Primary accumulation,[3],kidney and liver
